For this experiment, the target named is dGAE aggregates (Homo sapiens, UniProt P10636). Briefly: Epitope occlusion assay: dGAE aggregation with/without LMTM, 423 mAb capture ELISA. Format: biochemical. Conditions: LMTM 1:5 ratio, 24 h 37 °C. The protocol: During dGAE aggregation in vitro, scAb binding regions on dGA/dGAE are ‘hidden’ or ‘occluded’ which leads to a loss of immunoreactivity in aggregation samples. Here we have shown the occlusion of binding regions in aggregated dGAE samples and the recovery of immunoreactivity in the presence of LMTM, a tau-aggregation inhibitor. For preparing the aggregates, 10 μl 10 mM DTT was added to 1000 μl 100 μM dGAE and agitated with/without LMTM (1:5 ratio) at 700 rpm for 24 h at 37° C. Following overnight agitation, one third of each sample was kept aside as ‘total’ and the rest was spun down at 16000×g for 30 min and separated into ‘supernatant’ and ‘pellet’. The pellet was then resuspended in half the original volume for further experiments. […] Doubling dilutions of dGAE aggregate ‘total’, ‘supernatant’ and ‘pellet’ samples at 10 μg/ml starting concentration were added to designated wells in doubling dilutions in 1×PBS. dGAE monomer (non-aggregated) was included as assay control. All double dilutions were done in final volumes of 100 μl. This was left to incubate on lab bench for 1 h followed by the addition of test scAbs at 10 μg/ml. Anti-HuCk HRP labelled secondary antibody was added as described previously and ELISA data generated is represented using the graph below.
Chain of dGAE aggregates (P10636 614-708): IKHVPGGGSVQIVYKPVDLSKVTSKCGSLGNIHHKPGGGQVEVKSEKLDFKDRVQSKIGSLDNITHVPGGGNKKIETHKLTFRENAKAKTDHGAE
A general note: An ELISA detects its analyte on a solid surface through an enzyme-linked reagent.

In the case of `CN(C)c1ccc2c(c1)Sc1cc(N(C)C)ccc1N2.CS(=O)(=O)O.CS(=O)(=O)O` [LMTM, reference compound], the “effect on dGAE aggregation” value was “preventing the aggregation event”.

(Values after patent publication US20250355001A1, “METHOD FOR DETECTING A TAU PROTEIN FRAGMENT IN A SAMPLE” (GTINVENT LIMITED, priority 2022, published 2025).)
